Where a SMILES comes first, the peptide text is derived from it. [ ]: non-standard residue; d: D form. pGlu = O=C1CC[C@@H](C(=O)O)N1
Test system: drug-resistant Mycobacterium tuberculosis
Conditions: Mycobacterium tuberculosis resistant to PAS, streptomycin and INH; peptide 10 micrograms per ml; seven days

CSCC[C@H](NC(=O)[C@H](Cc1c[nH]c2ccccc12)NC(=O)CNC(=O)[C@H](Cc1ccc(O)cc1)NC(=O)[C@H](C)NC(=O)[C@H](CCC(=O)O)NC(=O)[C@H](CCC(=O)O)NC(=O)[C@H](CCC(=O)O)NC(=O)[C@H](CCC(=O)O)NC(=O)[C@H](CCC(=O)O)NC(=O)[C@H](CC(C)C)NC(=O)[C@H](Cc1c[nH]c2ccccc12)NC(=O)[C@@H]1CCCN1C(=O)CNC(=O)[C@H](CCC(N)=O)NC(=O)[C@H](CCCCN)NC(=O)[C@H](CCCCN)NC(=O)[C@H](CO)NC(=O)[C@@H]1CCCN1C(=O)[C@H](CC(=O)O)NC(=O)[C@H](C)NC(=O)[C@@H](NC(=O)[C@H](CC(C)C)NC(=O)[C@H](Cc1c[nH]cn1)NC(=O)[C@@H]1CCCN1C(=O)[C@@H]1CCCN1C(=O)CNC(=O)[C@H](CCC(N)=O)NC(=O)[C@@H]1CCCN1C(=O)CNC(=O)[C@H](CC(C)C)NC(=O)[C@@H]1CCC(=O)N1)C(C)C)C(=O)N[C@@H](CC(=O)O)C(=O)N[C@@H](Cc1ccccc1)C(N)=O [Big Gastrin I] ([pGlu]LGPQGPPHLVADPSKKQGPWLEEEEEAYGWMDF-NH2)
% inhibition: 100.0%
